Target: T1, recombinant human ACSS2 (Homo sapiens, UniProt Q9NR19)
T1 construct: purchased Origene TP304260
Assay: ACSS2 biochemical assay (Transcreener AMP assay)
Details: in vitro biochemical TranScreener assay; mean±S.D., n≥3 (FIG. 1C)
Experimental: ACSS2 enzyme activity was measured using the TRANSCREENER® TRF AMP/GMP assay (Bellbrook Labs). Recombinant ACSS2 was purchased from Origene. The assay was performed in white, opaque, low volume 384 well plates. Test compounds were diluted in 100% DMSO and then 100 nL of each dilution was transferred using the Janus MDT Nanohead to assay plates containing 3 μL ACSS2 (2.5 nM) in assay buffer (30 mM HEPES, pH 7.4, 140 mM NaCl, 2 mM MgCl2, 5 mM sodium acetate, 2 mM DTT, 0.005% Brij35). Three microliters of substrate mix containing 100 μM ATP and 10 μM coenzyme A was added to the plates followed by a 120 min incubation. The final concentrations of enzyme and substrates in the reaction mix was 1.25 nM ACSS2, 50 μM ATP, and 5 μM coenzyme A. After incubation, 3 μL of terbium conjugated AMP antibody and AMP tracer was added to the plates according to the methods described by BellBrook Labs. After an additional 30 min, the HTRF signal was measured using an Envision Plate reader. Data were normalized to % inhibition, where 100% inhibition is equal to the counts obtained in the absence of ACSS2, and 0% inhibition is equal to the counts obtained in the complete reaction including a DMSO control.
A robust biochemical screening assay was set up for testing compounds as potential ACSS2 inhibitors. […]

T1 sequence (Q9NR19 whole entry): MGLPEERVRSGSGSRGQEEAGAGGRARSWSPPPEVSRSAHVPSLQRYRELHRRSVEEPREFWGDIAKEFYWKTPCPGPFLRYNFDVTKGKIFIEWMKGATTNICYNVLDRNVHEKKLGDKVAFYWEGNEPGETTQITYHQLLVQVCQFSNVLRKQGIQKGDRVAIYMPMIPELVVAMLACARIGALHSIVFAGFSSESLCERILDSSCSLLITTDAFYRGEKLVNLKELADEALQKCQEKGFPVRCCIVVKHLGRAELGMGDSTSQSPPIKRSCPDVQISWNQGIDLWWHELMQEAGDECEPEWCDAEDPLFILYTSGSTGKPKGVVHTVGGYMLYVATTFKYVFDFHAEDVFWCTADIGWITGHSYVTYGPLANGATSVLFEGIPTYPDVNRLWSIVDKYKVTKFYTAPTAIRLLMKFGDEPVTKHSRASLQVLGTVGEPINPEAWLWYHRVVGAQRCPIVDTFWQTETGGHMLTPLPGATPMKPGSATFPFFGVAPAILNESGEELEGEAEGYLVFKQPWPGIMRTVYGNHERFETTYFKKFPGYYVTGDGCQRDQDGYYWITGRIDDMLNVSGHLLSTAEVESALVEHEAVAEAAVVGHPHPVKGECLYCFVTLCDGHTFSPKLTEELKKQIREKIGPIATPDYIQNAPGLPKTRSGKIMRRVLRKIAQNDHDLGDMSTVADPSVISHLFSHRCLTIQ

Compound: COCCNC(=O)Nc1ccc2nc(-c3cccs3)c(-c3cccs3)nc2c1 [VY-3-249, 1-(2,3-di(thiophen-2-yl)quinoxalin-6-yl)-3-(2-methoxyethyl)urea]
- IC50: 1.21 ± 0.128 µM
